Where two headings read alike, the source gives them in different places.
How the values were obtained:
[1] = tested on: Plasmodium falciparum: 3D7 strain; assay: Antimalarial activity by LDH assay, 3D7 strain; assay type: cell-based; settings: for IC50: Plasmodium falciparum
Procedure: Compounds that chelate metal ions in various modes (L1 to L25 in FIG. 1) were selected, and their antimalarial activities were evaluated by LDH assay. Since infection with malaria causes an increase in the LDH activity, the evaluation can be made based on the criteria that the lower the detected LDH activity, the higher the antimalarial activity.
(§1) The LDH assay was carried out according to the following procedure. That is, 0.5 μL of a solution of each compound in DMSO was added to 100 μL of a culture liquid of erythrocytes (88% RPMI solution; 2% erythrocytes, provided by the Japanese Red Cross Society; and 10% human serum, provided by the Japanese Red Cross Society) infected with falciparum malaria parasites (Plasmodium falciparum: 3D7 strain) (infection rate of erythrocytes, 0.3%). The resulting culture liquid was subjected to culture in a 96-well plate under an atmosphere of 5% CO2, 5% O2, and 90% N2 at 37° C. for three days. Subsequently, the culture liquid was cooled at −80° C. for three hours, and then returned to room temperature. After addition of 150 μL of an LDH enzyme reaction liquid (0.15 mg/mL diaphorase, 37.5 μL/mL of 50% sodium lactate, 0.17 mg/mL NBT, 0.11 mg/mL APAD, 0.16 mL/mL of 1 M Tris-HCl (pH 8), and 8.3 μL/mL of Tween 20), the absorbance at 620 nm was measured.
By the same procedure as in Experiment 1, erythrocytes infected with malaria were treated with L6 (about 40 nM) together with iron ion (about 50 μM), copper ion (about 1 μM), or zinc ion (about 10 μM), and the antimalarial activity was evaluated by LDH assay.
(§2) According to the same procedure as in Experiment 1, the antimalarial activities of metal complexes (M-L6) synthesized by mixing various kinds of metal ions (MSO4: M=Zn, Fe, Cu, Co, Ni, or Mn) with L6 at a molar ratio of 1:1 were evaluated by LDH assay.

[2] = tested on: drug-resistant malaria parasite K1 strain; assay: Antimalarial activity by LDH assay, K1 strain; assay type: cell-based, Plasmodium falciparum; settings: Plasmodium falciparum
Procedure: as §1, §2
According to the same procedure as in Experiment 1, the antimalarial activities of L18 and di-2-pyridylketone 4,4-dimethyl-3-thiosemicarbazone (Sigma) against the malaria parasite 3D7 strain and the drug-resistant malaria parasite K1 strain were evaluated by LDH assay.
According to the same procedure as in Experiment 1, the antimalarial activities of 4′-(4-Pyridyl)-2,2′:6′,2″-terpyridine (Tokyo Chemical Industry) against the malaria parasite 3D7 strain and the drug-resistant malaria parasite K1 strain were evaluated by LDH assay.

[3] = tested on: Dd2 strain (drug-resistant malaria parasites); assay: Antimalarial activity by LDH assay, Dd2 strain; assay type: cell-based, Plasmodium falciparum; settings: Plasmodium falciparum
[4] = tested on: chloroquine-resistant strain; assay: Antimalarial activity against a chloroquine-resistant strain; assay type: cell-based; settings: result in words
[5] = Cytotoxicity by WST-8 assay, HEK293T; assay type: cell-based; settings: human, HEK293T cells
Procedure: (§3) After treating various kinds of cells (HEK293T: human embryonic kidney cells; HeLa: human cervical cancer cells; NIH3T3: mouse fibroblast cells; tsNRK: rat kidney cells; and 3Y1: rat fibroblasts) with a metal chelator for 48 hours, the cytotoxicities of the cells were evaluated by WST-8 assay.

[6] = Cytotoxicity by WST-8 assay, HeLa; assay type: cell-based, human; settings: human, HeLa cells
Procedure: as §3
(§4) Subsequently, the following cell types: HL60 (human promyelocytic leukemia cells), HeLa (human cervical cancer cells), C3H10T1/2 (murine multipotential mesenchymal cells), and HEK293 (human embryonic kidney 293 cells); were treated with metal complexes M-L6 (M=Zn, Fe, Cu, Co, Ni, and Mn) for 48 hours, and then subjected to WST-8 assay to perform evaluation of the cytotoxicity of each kind of metal complex.

[7] = Cytotoxicity by WST-8 assay, NIH3T3; assay type: cell-based; settings: mouse, NIH3T3 cells, NIH3T3, 48 hours
Procedure: as §3

[8] = Cytotoxicity by WST-8 assay, tsNRK; assay type: cell-based; settings: rat, tsNRK cells
Procedure: as §3

[9] = Cytotoxicity by WST-8 assay, 3Y1; assay type: cell-based; settings: rat, 3Y1 cells, 3Y1, 48 hours
Procedure: as §3

[10] = Cytotoxicity by WST-8 assay, HL60; assay type: cell-based, human; settings: human, HL60 cells, Table 3, 48 hours
Procedure: as §4

[11] = Cytotoxicity by WST-8 assay, C3H10T1/2; assay type: cell-based, murine; settings: mouse, C3H10T1/2 cells, Table 3, 48 hours
Procedure: as §4

[12] = Cytotoxicity by WST-8 assay, HEK293; assay type: cell-based, human; settings: human, HEK293 cells, Table 3, 48 hours
Procedure: as §4

[13] = tested on: human cells (HEK293T and HeLa); assay: Cytotoxicity by WST-8 assay, summary for human cells; assay type: cell-based; settings: 48 hours, read-out: concentration at which toxicity is exerted (IC50 value)
Procedure: as §3

[14] = tested on: mouse malaria parasites (Plasmodium berghei ANKA strain); assay: Effect to suppress malaria infection in malaria-infected mice; assay type: in vivo; settings: Balb/c mice, 20 mg/kg intraperitoneal injection, Day 2 to Day 6 after infection
Procedure: (§5) To mice (7 weeks old, Balb/c, male), erythrocytes infected with mouse malaria parasites (Plasmodium berghei ANKA strain) (total number of erythrocytes per mouse, about 10^7; rate of malaria-infected erythrocytes, 0.3%) were intraperitoneally injected. L6 was administered (20 mg/kg, intraperitoneal injection) to each of the thus obtained malaria-infected mice, and the rate of malaria-infected erythrocytes was measured. As a result, on Day 2 to Day 6 after the infection, the infection rate tended to increase in the negative control to which only DMSO was administered. […] The effect of L6 to reduce the infection rate was almost equivalent to the effect of an existing drug, chloroquine (CQ).

[15] = tested on: mouse malaria parasites (Plasmodium berghei ANKA strain); assay: Life-prolonging effect after infection with malaria, intraperitoneal; assay type: in vivo; settings: malaria-infected mice, 20 mg/kg intraperitoneal injection
[16] = tested on: mouse malaria parasites (Plasmodium berghei ANKA strain); assay: Life-prolonging effect in malaria-infected mice, oral administration; assay type: in vivo; settings: oral 200 mg/kg on Day 1, Day 3, and Day 6
Procedure: as §5
To malaria-infected mice obtained by the same procedure as in Experiment 4, an aqueous solution of L6 or the zinc complex Zn-L6 was orally administered (at a dose of 200 mg/kg on Day 1, Day 3, and Day 6; N=6), and changes in the number of surviving individuals were investigated. […] That is, it is thought that, by formation of metal complex with zinc ion, L6 can remarkably suppress the toxicity in vivo while sufficiently maintaining the antimalarial activity.

For `c1ccc(CN(Cc2ccccn2)Cc2ccccn2)nc1` [L6, Tris(2-pyridylmethyl)amine], which “antimalarial activity (LDH assay, FIG. 2)” value ([1]; 10 nM to 10 μM, result in words) is on record?
The value was “remarkable antimalarial activity”.

What about the “antimalarial activity of L6 together with added metal ion” value ([1]; L6 about 40 nM with excess zinc ion (about 10 μM)) of the same molecule?
The value was “suppression of the antimalarial activity was found to some extent”.

What about the IC50 ([1]; 3D7, 3D7 strain, values in text, read-out: IC50 value for the antimalarial activity based on the LDH assay) of the same molecule?
The IC50 was ~31 nM.

What about the IC50 ([1]; 3D7, read-out: IC50 antimalarial activity, 3D7) of the same molecule?
The IC50 was 84 nM.

What about the IC50 ([2]; read-out: IC50 antimalarial activity against the K1 strain) of the same molecule?
Its IC50 is 80 to 160 nM.

What about the IC50 ([2]; read-out: IC50 antimalarial activity, K1) of the same molecule?
The IC50 was 82 nM.

And the IC50 ([3]; DD2, read-out: IC50 antimalarial activity against the Dd2 strain)?
Its IC50 is 80 to 160 nM.

What about the IC50 ([3]; DD2, read-out: IC50 antimalarial activity, Dd2) of the same molecule?
Its IC50 is 144 nM.

And the “antimalarial activity against a chloroquine-resistant strain” value [4]?
The value was “exhibit antimalarial activity also against a chloroquine-resistant strain”.

What about the IC50 at 48 h ([5]; 1st measurement) of the same molecule?
Its IC50 at 48 h is 5080 nM.

And the IC50 at 48 h ([5]; 2nd measurement)?
Its IC50 at 48 h is 5310 nM.

And the IC50 at 48 h ([6]; HeLa, 48 hours, 1st measurement (Table 1), read-out: IC50 value, cytotoxicity)?
The IC50 at 48 h was 5610 nM.

What about the IC50 at 48 h ([6]; HeLa, 48 hours, 2nd measurement (Table 1), read-out: IC50 value, cytotoxicity) of the same molecule?
The IC50 at 48 h was 5160 nM.

And the IC50 at 48 h ([6]; Table 3, 48 hours, WST-8, read-out: IC50 cytotoxicity, HeLa)?
The IC50 at 48 h was 5800 nM.

What about the IC50 at 48 h ([7]; 1st measurement) of the same molecule?
The IC50 at 48 h was 1800 nM.

What about the IC50 at 48 h ([7]; 2nd measurement) of the same molecule?
The IC50 at 48 h was 1950 nM.

And the IC50 at 48 h ([8]; 1st measurement)?
Its IC50 at 48 h is 1880 nM.

What about the IC50 at 48 h ([8]; 2nd measurement) of the same molecule?
Its IC50 at 48 h is 1900 nM.

What about the IC50 at 48 h ([9]; 1st measurement) of the same molecule?
The IC50 at 48 h was 2420 nM.

What about the IC50 at 48 h ([9]; 2nd measurement) of the same molecule?
The IC50 at 48 h was 3870 nM.

And the IC50 at 48 h [10]?
Its IC50 at 48 h is 1800 nM.

What about the IC50 at 48 h [11] of the same molecule?
The IC50 at 48 h was 5700 nM.

And the IC50 at 48 h [12]?
The IC50 at 48 h was 6000 nM.

And the IC50 [13]?
The IC50 was 5080 to 5610 nM.

And the “rate of malaria-infected erythrocytes (infection rate)” value [14]?
The value was “infection rate could be remarkably suppressed”.

And the “life-prolonging effect (number of surviving individuals)” value [15]?
The value was “remarkable life-prolonging effect”.

And the toxicity in vivo [16]?
Its toxicity in vivo is “influence of toxicity appears”.

From patent US10292976B2, “Anti-malarial agent” (RIKEN, priority 2014, dated 2019)
